# Measured values published in US20180110824A1, “Macrocyclic Modulators of the Ghrelin Receptor” (Ocera Therapeutics, Inc., priority 2016, published 2018).
# Test system: pulsatile GH release in rat
# Assay: Growth hormone response to test compounds in conscious, freely-moving rats
# Assay type: in vivo
# Experimental: The following method is employed to determine the temporal pattern and magnitude of the growth hormone (GH) response to test compounds, administered either systemically or centrally. […] Further results are presented in the Examples below.
# Adult male Sprague Dawley rats (225-300 g) were purchased from Charles River Canada (St. Constant, Canada) and individually housed on a 12-h light, 12-h dark cycle (lights on, time: 0600-1800) in a temperature (22±1° C.) and humidity-controlled room. Purina rat chow (Ralston Purina Co., St Louis, Mo.) and tap water were freely available. For these studies, chronic intracerebroventricular (icv) and intracardiac venous cannulas were implanted under sodium pentobarbital (50 mg/kg, ip) anesthesia using known techniques. The placement of the icv cannula was verified by both a positive drinking response to icv carbachol (100 ng/10 μl) injection on the day after surgery and methylene blue dye at the time of sacrifice. After surgery, the rats were placed directly in isolation test chambers with food and water freely available until body weight returned to preoperative levels (usually within 5-7 d). During this time, the rats were handled daily to minimize any stress associated with handling on the day of the experiment. On the test day, food was removed 1.5 h before the start of sampling and was returned at the end. Free moving rats were iv injected with either test sample at various levels (3, 30, 300, 1000 μg/kg) or normal saline at two different time points during a 6-h sampling period. The times 1100 and 1300 were chosen because they reflect typical peak and trough periods of GH secretion, as previously documented. The human ghrelin peptide, (5 μg, Phoenix Pharmaceuticals, Inc., Belmont, Calif.) was used as a positive control in the experiments and was diluted in normal saline just before use. To assess the central actions of test compounds on pulsatile GH release, a 10-fold lower dose of the test sample or normal saline, was administered icv at the same time points, 1100 and 1300. Blood samples (0.35 mL) were withdrawn every 15 min over the 6-h sampling period (time: 1000-1600) from all animals. To document the rapidity of the GH response to the test compound, an additional blood sample was obtained 5 min after each injection. […]
# Plasma GH concentrations were measured in duplicate by double antibody RIA using materials supplied by the NIDDK Hormone Distribution Program (Bethesda, Md.), The averaged plasma GH values for 5-6 rats per group are reported in terms of the rat GH reference preparation. […]
# • 1. […] Blood samples are drawn at defined, 15-minute intervals throughout the test day and growth hormone (GH) measured directly by radioimmunoassay. • 6. […]
compound,measurement,setting,value
CC1C(=O)NC(Cc2ccc(F)cc2)C(=O)NCCCc2ccccc2O[C@H](C)CNC(C2CC2)C(=O)N1C (stereo partly shown) [compound 298],IGF-1 levels,1000 μg/kg dose,No changes in IGF-1 levels
same,effect on GH release,FIG. 9,lack of effect on GH release
same,effect on ghrelin-induced GH release,"dosed 10 min. prior to ghrelin, FIG. 12B",neither inhibits nor augments ghrelin-induced GH release
same,pulsatile GH release in comparison to vehicle controls,doses up to 1000 μg/kg i.v.,no significant difference in pulsatile GH release
